Measurements from patent US20230265151A1, “GIP/GLP1 CO-AGONIST COMPOUNDS” (priority 2020, published 2023).
Like-named read-outs stand apart in the source and are kept apart here.

How the values were obtained:
[1] = target: T1, human GIP receptor (hGIPR) (Homo sapiens, UniProt P48546); test: [125I]-GIP binding, SPA with membranes of CHO cells expressing hGIPR; settings: human GIPR; geometric mean (SEM, n); read-out: Binding Affinity Ki, nM (SEM, n) hGIPR
T1 construct: expressed in transfected cells; crude membranes
T1 sequence (P48546 22-466): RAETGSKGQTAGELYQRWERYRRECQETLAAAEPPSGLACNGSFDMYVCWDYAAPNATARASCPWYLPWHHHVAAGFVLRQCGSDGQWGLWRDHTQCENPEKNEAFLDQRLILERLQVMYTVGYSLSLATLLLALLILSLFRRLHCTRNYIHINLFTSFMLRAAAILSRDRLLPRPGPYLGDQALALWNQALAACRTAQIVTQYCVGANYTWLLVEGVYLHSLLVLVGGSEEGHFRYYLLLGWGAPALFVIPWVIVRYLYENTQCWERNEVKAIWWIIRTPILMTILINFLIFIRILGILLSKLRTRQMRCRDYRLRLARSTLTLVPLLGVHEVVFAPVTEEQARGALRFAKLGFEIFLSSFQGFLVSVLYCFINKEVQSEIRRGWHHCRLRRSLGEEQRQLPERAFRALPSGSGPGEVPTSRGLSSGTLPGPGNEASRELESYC
Description: Two methods are used for the preparation of crude cell membranes.
Method 1: Frozen cell pellets are lysed on ice in hypotonic buffer containing 50 mM Tris HCl, pH 7.5, and Roche Complete™ Protease Inhibitors with EDTA. […] The homogenate is centrifuged at 4° C. at 1100 × g for 10 minutes. The supernatant is collected and stored on ice while the pellets are resuspended in homogenization buffer and rehomogenized as described above. The homogenate is centrifuged at 1100 × g for 10 minutes. The second supernatant is combined with the first supernatant and centrifuged at 35000 × g for 1 hour at 4° C. The resulting membrane pellet is resuspended in homogenization buffer containing protease inhibitors at approximately 1 to 3 mg/mL, quick frozen in liquid nitrogen and stored as aliquots in a -80° C. freezer until use.
The homogenate is centrifuged at 4° C. at 1800 × g for 15 minutes. The supernatant is collected and stored on ice while the pellets are resuspended in homogenization buffer (without DNAse I) and rehomogenized as described above. The homogenate is centrifuged at 1800 × g for 15 minutes. The second supernatant is combined with the first supernatant and centrifuged an additional time at 1800 × g for 15 minutes. The overall supernatant is then centrifuged at 25000 × g for 30 minutes at 4° C. The resulting membrane pellet is resuspended in homogenization buffer (without DNAse I) containing protease inhibitors at approximately 1 to 3 mg/mL and stored as aliquots in a -80° C. freezer until use.
The binding buffer contains 25 mM HEPES, pH 7.4, 2.5 mM CaCl2, 1 mM MgCl2, 0.1% (w/v) bacitracin, 0.003% (w/v) TWEEN®-20, and Roche Complete™ Protease Inhibitors without EDTA. Peptides and GIP are thawed and 3 fold serially diluted in 100% DMSO (10 point concentration response curves). […] Plates are sealed and mixed on a plate shaker (setting 6) for 1 minute and read with a PerkinElmer Trilux MicroBeta® scintillation counter after 2.5 to 12 hours of incubation/settling time at room temperature.
Raw CPM data for concentration curves of peptides, Gcg, GLP-1, or GIP are converted to percent inhibition by subtracting nonspecific binding (binding in the presence of excess unlabeled Gcg, GLP-1, or GIP, respectively) from the individual CPM values and dividing by the total binding signal, also corrected by subtracting nonspecific binding. Data are analyzed using four-parameter (curve maximum, curve minimum, IC50, Hill slope) nonlinear regression routines (Genedata Screener, version 12.0.4, Genedata AG, Basal, Switzerland). […] Values for Ki are reported as the geometric mean, with error expressed as the standard error of the mean (SEM) and n is equal to the number of independent replicates (determined in assays performed on different days). Geometric Means are calculated as follows: […]
The Ki Ratio (Ki for native control peptide/Ki for test compound) at each receptor and each species is calculated. The Ki Ratio is a rapid indication of the apparent affinity of a peptide compared to the native control peptide.
n=⅟x means that only one value out of the total number of replicates (x) is used to express the mean. SEM is only calculated when n=2 or greater non-qualified results exist. Means are expressed as GeoMetric means with the standard error of the mean (SEM) and the number of replicates (n) indicated in parenthesis.

hGIPR = target: T2, hGIPR (Homo sapiens, UniProt P48546); test: Functional cAMP formation (HTRF) in HEK-293 clonal cells expressing hGIPR, 0.1% bovine casein, without or with 1.0% human serum albumin; assay type: cell-based; settings: 37° C.; for Emax: percent of maximal response to GIP(1-42)NH2, read-out: hGIPR Emax, % ± SEM; for EC50: read-out: hGIPR EC50, nM (SEM, n)
T2 construct: expressed in transfected cells
T2 sequence (P48546 22-466): T1 sequence (P48546 22-466)
Summary of the method: (§1)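 Readings of the HTRF 665/620 nm ratio, which falls as cAMP rises, were converted to nM cAMP using a standard curve after 30 min peptide exposure at 37° C.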

hGCGR = target: T3, hGCGR (Homo sapiens, UniProt P47871); test: Functional cAMP formation (HTRF) in HEK-293 clonal cells expressing hGCGR, 0.1% bovine casein, without or with 1.0% human serum albumin; assay type: cell-based; settings: read-out: hGCGR EC50, nM (SEM, n)
T3 construct: expressed in transfected cells
T3 sequence (P47871 26-477): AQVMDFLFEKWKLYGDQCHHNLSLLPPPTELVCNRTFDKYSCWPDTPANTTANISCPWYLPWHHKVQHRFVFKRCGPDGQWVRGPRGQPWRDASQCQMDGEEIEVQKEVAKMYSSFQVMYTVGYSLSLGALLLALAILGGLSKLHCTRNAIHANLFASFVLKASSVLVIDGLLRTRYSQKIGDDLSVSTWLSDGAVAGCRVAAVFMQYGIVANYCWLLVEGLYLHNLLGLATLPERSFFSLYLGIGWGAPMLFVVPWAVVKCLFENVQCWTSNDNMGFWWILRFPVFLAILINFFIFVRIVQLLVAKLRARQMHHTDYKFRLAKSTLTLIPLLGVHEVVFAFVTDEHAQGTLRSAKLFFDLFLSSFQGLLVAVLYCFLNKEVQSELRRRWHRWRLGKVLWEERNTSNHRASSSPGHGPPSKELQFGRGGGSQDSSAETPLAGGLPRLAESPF
Summary of the method: as §1

hGLP-1R = hGLP-1R (Homo sapiens, UniProt P43220); test: Functional cAMP formation (HTRF) in HEK-293 clonal cells expressing hGLP-1R, 0.1% bovine casein, without or with 1.0% human serum albumin; assay type: cell-based; set-up: expressed in transfected cells; settings: 37° C.; for EC50: read-out: hGLP-1R EC50, nM (SEM, n)
Chain of hGLP-1R (P43220 24-463): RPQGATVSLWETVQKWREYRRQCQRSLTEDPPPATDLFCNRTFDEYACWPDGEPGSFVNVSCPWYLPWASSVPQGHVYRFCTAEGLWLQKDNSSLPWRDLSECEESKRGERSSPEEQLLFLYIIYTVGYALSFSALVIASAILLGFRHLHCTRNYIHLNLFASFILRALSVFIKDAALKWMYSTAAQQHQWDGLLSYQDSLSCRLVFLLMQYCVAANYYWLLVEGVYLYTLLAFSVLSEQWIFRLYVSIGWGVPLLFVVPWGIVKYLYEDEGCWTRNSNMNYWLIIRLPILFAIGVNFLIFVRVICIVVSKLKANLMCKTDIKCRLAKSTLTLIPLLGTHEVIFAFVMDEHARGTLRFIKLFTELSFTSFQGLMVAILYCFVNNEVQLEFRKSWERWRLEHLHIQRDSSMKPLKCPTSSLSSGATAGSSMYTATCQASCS
Summary of the method: as §1

[2] = cAMP, 0.1% bovine casein (no human serum albumin), geometric mean
[3] = cAMP, 0.1% bovine casein and 1.0% human serum albumin, geometric mean (SEM, n)
[4] = 0.1% bovine casein and 1.0% human serum albumin, geometric mean

Structure (SMILES) | Ki [1] | Emax (hGIPR; HEK293, cAMP, 0.1% bovine casein and 1.0% human serum albumin) | Emax (hGIPR; HEK293, cAMP, 0.1% bovine casein, arithmetic mean) | EC50 (hGIPR; [2]) | EC50 (hGIPR; [3]) | EC50 (hGCGR; cAMP, 37° C., 0.1% bovine casein (no human serum albumin), geometric mean) | EC50 (hGCGR; cAMP, 37° C., 0.1% bovine casein and 1.0% human serum albumin, geometric mean (SEM, n)) | Emax (hGLP-1R; HEK293, cAMP, 0.1% bovine casein and 1.0% human serum albumin, percent of maximal response to GLP-1(7-36)NH2, read-out: hGLP-1R Emax, % ± SEM) | EC50 (hGLP-1R; [2]) | EC50 (hGLP-1R; [3]) | EC50 (hGIPR; [4]) | Emax (hGIPR; HEK293, 0.1% bovine casein and 1.0% human serum albumin) | EC50 (hGCGR; 0.1% bovine casein and 1.0% human serum albumin, 37° C., geometric mean) | EC50 (hGCGR; cAMP, incubated at 37° C., 0.1% bovine casein (no human serum albumin), geometric mean) | EC50 (hGLP-1R; [4])
CCCCCCCCCCCC(=O)N[C@@H](CCC(=O)NCCOCCOCC(=O)NCCOCCOCC(=O)NCCCC[C@H](NC(=O)[C@H](CO)NC(=O)[C@@H]1CCCN1C(=O)[C@@H]1CCCN1C(=O)[C@@H]1CCCN1C(=O)[C@H](C)NC(=O)CNC(=O)[C@H](CO)NC(=O)[C@H](CO)NC(=O)[C@@H]1CCCN1C(=O)CNC(=O)CNC(=O)[C@H](CCC(=O)O)NC(=O)[C@@H](NC(=O)[C@H](CC(C)C)NC(=O)[C@](C)(Cc1ccc(O)cc1)NC(=O)[C@@H](CCC(=O)O)NC(=O)[C@@H](NC(=O)[C@H](Cc1ccccc1)NC(=O)[C@H](CCCN)NC(=O)C(C)(C)NC(=O)[C@H](CCC(N)=O)NC(=O)[C@H](C)NC(=O)[C@H](CCCCNC(=O)COCCOCCNC(=O)COCCOCCNC(=O)CC[C@H](NC(=O)CCCCCCCCCCC)C(=O)O)NC(=O)[C@H](CCCN)NC(=O)[C@H](CC(=O)O)NC(=O)[C@H](CC(C)C)NC(=O)[C@](C)(CC(C)C)NC(=O)[C@@H](NC(=O)C(C)(C)NC(=O)[C@H](Cc1ccncc1)NC(=O)[C@H](CC(=O)O)NC(=O)[C@H](CO)NC(=O)[C@@H](NC(=O)[C@](C)(Cc1ccccc1F)NC(=O)[C@@H](NC(=O)CNC(=O)[C@H](CCC(=O)O)NC(=O)C(C)(C)NC(=O)[C@@H](N)Cc1ccc(O)cc1)[C@@H](C)O)[C@@H](C)O)[C@@H](C)CC)[C@@H](C)CC)[C@@H](C)CC)C(N)=O)C(=O)O [Example 418] | 0.0174 nM | 87.2% | 91% | 0.00599 nM | 0.126 nM | > 9950 nM | > 9950 nM | 98.8% | 0.0603 nM | 1.72 nM |  |  |  |  | 
CCCCCCCCCCCCCCCC(=O)N[C@@H](CCC(=O)NCCOCCOCC(=O)NCCOCCOCC(=O)NCCCC[C@H](NC(=O)[C@H](CO)NC(=O)[C@@H]1CCCN1C(=O)[C@@H]1CCCN1C(=O)[C@@H]1CCCN1C(=O)[C@H](C)NC(=O)CNC(=O)[C@H](CO)NC(=O)[C@H](CO)NC(=O)[C@@H]1CCCN1C(=O)CNC(=O)CNC(=O)[C@H](CCC(=O)O)NC(=O)[C@@H](NC(=O)[C@H](CC(C)C)NC(=O)[C@](C)(Cc1ccc(O)cc1)NC(=O)[C@@H](CCC(=O)O)NC(=O)[C@@H](NC(=O)[C@H](Cc1ccccc1)NC(=O)[C@H](CCC(=O)O)NC(=O)C(C)(C)NC(=O)[C@H](CCC(N)=O)NC(=O)[C@H](C)NC(=O)[C@H](CCCCNC(=O)COCCOCCNC(=O)COCCOCCNC(=O)CC[C@H](NC(=O)CCCCCCCCCCCCCCC)C(=O)O)NC(=O)[C@H](CCCN)NC(=O)[C@H](CC(=O)O)NC(=O)[C@H](CC(C)C)NC(=O)[C@](C)(CC(C)C)NC(=O)[C@@H](NC(=O)[C@H](CO)NC(=O)[C@H](Cc1ccncc1)NC(=O)[C@H](CC(=O)O)NC(=O)[C@H](CO)NC(=O)[C@@H](NC(=O)[C@](C)(Cc1ccccc1F)NC(=O)[C@@H](NC(=O)CNC(=O)[C@H](CCC(=O)O)NC(=O)C(C)(C)NC(=O)[C@@H](N)Cc1ccc(O)cc1)[C@@H](C)O)[C@@H](C)O)[C@@H](C)CC)[C@@H](C)CC)[C@@H](C)CC)C(N)=O)C(=O)O [Example 25] | 0.0293 nM |  |  |  |  |  |  |  |  |  | 0.274 nM | 94.3 ± 1.73% | > 9950 nM | > 9950 nM | 1.11 nM
